# Laboratory results as given in patent US20240018123A1, “COMPOUND FOR INHIBITING OR DISINTEGRATING ANDROGEN RECEPTOR, AND PHARMACEUTICAL USE THEREOF” (KOREA RESEARCH INSTITUTE OF CHEMICAL TECHNOLOGY, priority 2020, published 2024).
# Biological target: T1, Androgen receptor (AR) (Homo sapiens, UniProt P10275, T878A)
# T1 construct: 5.5×10^5 LNCap cells were injected into each well of a 6-well plate; endogenous in cells; host or cells: LNCaP
# T1 sequence (P10275 1-920 T878A): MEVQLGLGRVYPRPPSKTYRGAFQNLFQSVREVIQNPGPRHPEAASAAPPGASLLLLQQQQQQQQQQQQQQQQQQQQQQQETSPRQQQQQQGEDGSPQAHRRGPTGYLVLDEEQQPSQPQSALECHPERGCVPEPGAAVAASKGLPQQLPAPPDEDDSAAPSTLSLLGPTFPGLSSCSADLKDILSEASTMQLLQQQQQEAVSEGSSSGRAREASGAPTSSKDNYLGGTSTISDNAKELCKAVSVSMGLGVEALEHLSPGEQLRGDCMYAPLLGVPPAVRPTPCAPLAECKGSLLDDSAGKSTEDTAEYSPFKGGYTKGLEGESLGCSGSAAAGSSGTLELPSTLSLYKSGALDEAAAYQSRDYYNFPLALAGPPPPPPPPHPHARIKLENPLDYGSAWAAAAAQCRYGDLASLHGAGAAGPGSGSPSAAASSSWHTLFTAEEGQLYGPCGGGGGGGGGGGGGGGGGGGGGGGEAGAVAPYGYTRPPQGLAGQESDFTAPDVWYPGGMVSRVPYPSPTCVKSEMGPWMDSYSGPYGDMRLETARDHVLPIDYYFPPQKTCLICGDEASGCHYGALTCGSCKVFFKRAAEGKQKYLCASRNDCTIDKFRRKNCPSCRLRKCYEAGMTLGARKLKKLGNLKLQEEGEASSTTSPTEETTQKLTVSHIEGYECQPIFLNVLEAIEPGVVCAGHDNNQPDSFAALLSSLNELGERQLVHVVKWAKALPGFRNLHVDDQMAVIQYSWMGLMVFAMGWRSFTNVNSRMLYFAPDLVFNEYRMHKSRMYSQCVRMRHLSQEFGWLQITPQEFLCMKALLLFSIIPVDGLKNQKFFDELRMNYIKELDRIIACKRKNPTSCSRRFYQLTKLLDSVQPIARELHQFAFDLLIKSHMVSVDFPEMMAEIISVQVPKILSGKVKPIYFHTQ
# Experiment: Assessment of AR proteolytic activity (Western blotting of LNCap cell lysates)
# Type: cell-based
# Details: 24 hours of treatment, Western blotting quantified with Image J
# Method: Assessment of AR Proteolytic Activity
# Androgen receptor (AR) proteolytic activity of the compound according to the present invention was evaluated as follows: Specifically, 5.5×10^5 LNCap cells were injected into each well of a 6-well plate. […] After 24 hours of treatment, cells were collected and lysed using RIPA Lysis buffer (50 mM Tris-HCl, pH7.5, 150 mM NaCl, 1% Triton X-100, 2 mM EDTA, 0.1% SDS, 0.5% sodium deoxycholate and protease inhibitor cocktail) to make cell lysates. Western blotting was performed, and the results were quantified using Image J program.
row,Compound,"Degradation (1 μM treated in LNCaP, % AR remaining) [%]"
1,"CC1(C)[C@H](NC(=O)c2ccc(C#CC3CCN(CC4CCN(c5ccc6c(=O)n(C7CCC(=O)NC7=O)nnc6c5)CC4)CC3)nc2)C(C)(C)[C@H]1Oc1ccc(C#N)c(Cl)c1 (stereo partly drawn) [Example 195, N-((1r,3r)-3-(3-chloro-4-cyanophenoxy)-2,2,4,4-tetramethylcyclobutyl)-6-((1-((1-(3-(2,6-dioxopiperidin-3-yl)-4-oxo-3,4-dihydrobenzo[d][1,2,3]triazin-7-yl)piperidin-4-yl)methyl)piperidin-4-yl)ethynyl)nicotinamide]",3
2,"CC1(C)C(NC(=O)c2ccc(N3CC[C@@H](CN4CC5(CCN(c6ccc7nnn(C8CCC(=O)NC8=O)c(=O)c7c6)CC5)C4)C3)nc2)C(C)(C)C1Oc1ccc(C#N)c(Cl)c1 (stereo partly drawn) [Example 188, N-((1r,3S)-3-(3-chloro-4-cyanophenoxy)-2,2,4,4-tetramethylcyclobutyl)-6-((3S)-3-((7-(3-(2,6-dioxopiperidin-3-yl)-4-oxo-3,4-dihydrobenzo[d][1,2,3]triazin-6-yl)-2,7-diazaspiro[3.5]nonan-2-yl)methyl)pyrrolidin-1-yl)nicotinamide]",21
3,"N-((1r,3r)-3-(3-chloro-4-cyanophenoxy)-2,2,4,4-tetramethylcyclobutyl)-4-(4-(1-(3-(2,6-dioxopiperidin-3-yl)-4-oxo-3,4-dihydrobenzo[d][1,2,3]triazin-6-yl)azetidine-3-carbonyl)piperazin-1-yl)benzamide [Example 44]",3.7
4,"CC1(C)C(NC(=O)c2ccc(N3CC[C@H](CN4CCN(C5CCN(c6ccc7c(=O)n(C8CCC(=O)NC8=O)nnc7c6)CC5)CC4)C3)nc2)C(C)(C)C1Oc1ccc(C#N)c(Cl)c1 (stereo partly drawn) [Example 191, N-((1r,3R)-3-(3-chloro-4-cyanophenoxy)-2,2,4,4-tetramethylcyclobutyl)-6-((3R)-3-((4-(1-(3-(2,6-dioxopiperidin-3-yl)-4-oxo-3,4-dihydrobenzo[d][1,2,3]triazin-7-yl)piperidin-4-yl)piperazin-1-yl)methyl)pyrrolidin-1-yl)nicotinamide]",33
5,"CC1(C)C(NC(=O)c2ccc(N3CC[C@H](CN4CCN(C5CCN(c6ccc7nnn(C8CCC(=O)NC8=O)c(=O)c7c6)CC5)CC4)C3)nc2)C(C)(C)C1Oc1ccc(C#N)c(Cl)c1 (stereo partly drawn) [Example 192, N-((1r,3R)-3-(3-chloro-4-cyanophenoxy)-2,2,4,4-tetramethylcyclobutyl)-6-((3R)-3-((4-(1-(3-(2,6-dioxopiperidin-3-yl)-4-oxo-3,4-dihydrobenzo[d][1,2,3]triazin-6-yl)piperidin-4-yl)piperazin-1-yl)methyl)pyrrolidin-1-yl)nicotinamide]",22
6,"CC1(C)C(NC(=O)c2ccc(C#CCN3CCC4(CC3)CN(c3ccc5c(=O)n(C6CCC(=O)NC6=O)nnc5c3)C4)nc2)C(C)(C)C1Oc1ccc(C#N)c(Cl)c1 (stereo not drawn) [Example 181, N-((1r,3r)-3-(3-chloro-4-cyanophenoxy)-2,2,4,4-tetramethylcyclobutyl)-6-(3-(2-(3-(2,6-dioxopiperidin-3-yl)-4-oxo-3,4-dihydrobenzo[d][1,2,3]triazin-7-yl)-2,7-diazaspiro[3.5]nonan-7-yl)prop-1-yn-1-yl)nicotinamide]",18
7,"N#Cc1ccc(OC2CCC(NC(=O)c3ccc(N4CCC(CN5CCN(c6ccc7c(=O)n(C8CCC(=O)NC8=O)nnc7c6)CC5)CC4)nc3)CC2)cc1Cl (stereo not drawn) [Example 164, N-((1r,4r)-4-(3-chloro-4-cyanophenoxy)cyclohexyl)-6-(4-((4-(3-(2,6-dioxopiperidin-3-yl)-4-oxo-3,4-dihydrobenzo[d][1,2,3]triazin-7-yl)piperazin-1-yl)methyl)piperidin-1-yl)nicotinamide]",13
8,"N#Cc1ccc(OC2CCC(NC(=O)c3ccc(N4CCC(CN5CCN(c6ccc7nnn(C8CCC(=O)NC8=O)c(=O)c7c6)CC5)CC4)nc3)CC2)cc1Cl (stereo not drawn) [Example 160, N-((1r,4r)-4-(3-chloro-4-cyanophenoxy)cyclohexyl)-6-(4-((4-(3-(2,6-dioxopiperidin-3-yl)-4-oxo-3,4-dihydrobenzo[d][1,2,3]triazin-6-yl)piperazin-1-yl)methyl)piperidin-1-yl)nicotinamide]",31
9,"CC1(C)C(NC(=O)c2ccc(N3CCC(CCN4CCN(c5ccc6c(=O)n(C7CCC(=O)NC7=O)nnc6c5)CC4)CC3)nc2)C(C)(C)C1Oc1ccc(C#N)c(Cl)c1 (stereo not drawn) [Example 197, N-((1r,3r)-3-(3-chloro-4-cyanophenoxy)-2,2,4,4-tetramethylcyclobutyl)-6-(4-(2-(4-(3-(2,6-dioxopiperidin-3-yl)-4-oxo-3,4-dihydrobenzo[d][1,2,3]triazin-7-yl)piperazin-1-yl)ethyl)piperidin-1-yl)nicotinamide]",16
10,"CC1(C)C(NC(=O)c2ccc(N3CCC(CN4CCN(c5ccc6c(=O)n(C7CCC(=O)NC7=O)nnc6c5)CC4)CC3)cc2)C(C)(C)C1Oc1ccc(C#N)c(Cl)c1 (stereo not drawn) [Example 165, N-((1r,3r)-3-(3-chloro-4-cyanophenoxy)-2,2,4,4-tetramethylcyclobutyl)-4-(4-((4-(3-(2,6-dioxopiperidin-3-yl)-4-oxo-3,4-dihydrobenzo[d][1,2,3]triazin-7-yl)piperazin-1-yl)methyl)piperidin-1-yl)benzamide]",8
11,"CC1(C)C(NC(=O)c2ccc(N3CCC4(CC3)CN(CC3CCN(c5ccc6nnn(C7CCC(=O)NC7=O)c(=O)c6c5)CC3)C4)nc2)C(C)(C)C1Oc1ccc(C#N)c(Cl)c1 (stereo not drawn) [Example 174, N-((1r,3r)-3-(3-chloro-4-cyanophenoxy)-2,2,4,4-tetramethylcyclobutyl)-6-(2-((1-(3-(2,6-dioxopiperidin-3-yl)-4-oxo-3,4-dihydrobenzo[d][1,2,3]triazin-6-yl)piperidin-4-yl)methyl)-2,7-diazaspiro[3.5]nonan-7-yl)nicotinamide]",15
12,"CC1(C)[C@H](NC(=O)c2ccc(N3CCC(CN4CCC5(CC4)CN(c4ccc6nnn(C7CCC(=O)NC7=O)c(=O)c6c4)C5)CC3)nc2)C(C)(C)[C@H]1Oc1ccc(C#N)c(Cl)c1 (stereo partly drawn) [Example 172, N-((1r,3r)-3-(3-chloro-4-cyanophenoxy)-2,2,4,4-tetramethylcyclobutyl)-6-(4-((2-(3-(2,6-dioxopiperidin-3-yl)-4-oxo-3,4-dihydrobenzo[d][1,2,3]triazin-6-yl)-2,7-diazaspiro[3.5]nonan-7-yl)methyl)piperidin-1-yl)nicotinamide]",7

# Test system: VCaP cells
# Experiment: Cytotoxicity assessment (Cell-titer-glo cell viability), VCaP
# Details: read-out: VCaP (CC50); VCaP cells, 6 days of treatment, Cell-titer-glo, vs DMSO
row,Compound,CC50 [nM]
1,"CC1(C)[C@H](NC(=O)c2ccc(N3CCN(Cc4cn(-c5ccc6nnn(C7CCC(=O)NC7=O)c(=O)c6c5)nn4)CC3)cc2)C(C)(C)[C@H]1Oc1ccc(C#N)c(Cl)c1 (stereo partly drawn) [Example 91, N-((1r,3r)-3-(3-chloro-4-cyanophenoxy)-2,2,4,4-tetramethylcyclobutyl)-4-(4-((1-(3-(2,6-dioxopiperidin-3-yl)-4-oxo-3,4-dihydrobenzo[d][1,2,3]triazin-6-yl)-1H-1,2,3-triazol-4-yl)methyl)piperazin-1-yl)benzamide]",262
2,"CC1(C)[C@H](NC(=O)c2ccc(-n3cc(CNc4ccc5nnn(C6CCC(=O)NC6=O)c(=O)c5c4)nn3)cc2)C(C)(C)[C@H]1Oc1ccc(C#N)c(Cl)c1 (stereo partly drawn) [Example 149, N-((1r,3r)-3-(3-chloro-4-cyanophenoxy)-2,2,4,4-tetramethylcyclobutyl)-4-(4-(((3-(2,6-dioxopiperidin-3-yl)-4-oxo-3,4-dihydrobenzo[d][1,2,3]triazin-6-yl)amino)methyl)-1H-1,2,3-triazol-1-yl)benzamide]",> 10000
3,"CC1(C)C(NC(=O)c2ccc(-c3cnn(C4CCN(CC5CCN(C(=O)C6CCN(c7ccc8nnn(C9CCC(=O)NC9=O)c(=O)c8c7)CC6)CC5)CC4)c3)nc2)C(C)(C)C1Oc1ccc(C#N)c(Cl)c1 (stereo not drawn) [Example 124, N-((1r,3r)-3-(3-chloro-4-cyanophenoxy)-2,2,4,4-tetramethylcyclobutyl)-6-(1-(1-((1-(1-(3-(2,6-dioxopiperidin-3-yl)-4-oxo-3,4-dihydrobenzo[d][1,2,3]triazin-6-yl)piperidine-4-carbonyl)piperidin-4-yl)methyl)piperidin-4-yl)-1H-pyrazol-4-yl)nicotinamide]",13
